According to patent US20260217693A1, “SRPK1 INHIBITORS AND METHODS OF USE” (ALLIANTHERA (SUZHOU) BIOPHARMACEUTICAL CO., LTD., priority 2023, published 2026):

Molecular target: SRPK1 (Homo sapiens, UniProt Q96SB4)
Experiment: SRPK1 assay, Method 1 (ADP-Glo luminescence)
Format: biochemical
Conditions: Method 1 (no asterisk): substrate Human SRSF1/SF2, 25° C. for 90 min, test compounds 30 μM top, 3-fold, duplicate
Procedure: The SPRK1 assay was performed as follows:
Method 1: The assay buffer was prepared. The reference compound was diluted to 10 mM. The test compounds were prepared at a concentration of 30 mM. Fifteen nL of compounds/DMSO were transferred to a multi-well plate. Then, 7.5 ul enzyme SRPK1 was added to each well, the plate was spun down at 1000 rpm and centrifuged for 30 sec. Then, 7.5 ul substrate Human SRSF1/SF2 was added to each well, the plate spun down at 1000 rpm and centrifuged for 30 sec. The plate was then incubated at 25° C. for 90 min. After 90 min, 5 μl of ADP-Glo™ Reagent was added to each well and the plate incubated at room temperature for 60 minutes. Then, 10 μl of Kinase Detection Reagent was added to each well and the plate incubate at room temperature for 60 minutes. The luminescence of each well was recorded on Envision. The test compounds were at 30 μM top, 3-fold, in duplicate, and the final concentration of DMSO was 0.1%.
All assays were performed using Method 1, except where indicated with an asterisk (*) in the below table, indicating Method 2 was used.

Chain of SRPK1 (Q96SB4 whole entry): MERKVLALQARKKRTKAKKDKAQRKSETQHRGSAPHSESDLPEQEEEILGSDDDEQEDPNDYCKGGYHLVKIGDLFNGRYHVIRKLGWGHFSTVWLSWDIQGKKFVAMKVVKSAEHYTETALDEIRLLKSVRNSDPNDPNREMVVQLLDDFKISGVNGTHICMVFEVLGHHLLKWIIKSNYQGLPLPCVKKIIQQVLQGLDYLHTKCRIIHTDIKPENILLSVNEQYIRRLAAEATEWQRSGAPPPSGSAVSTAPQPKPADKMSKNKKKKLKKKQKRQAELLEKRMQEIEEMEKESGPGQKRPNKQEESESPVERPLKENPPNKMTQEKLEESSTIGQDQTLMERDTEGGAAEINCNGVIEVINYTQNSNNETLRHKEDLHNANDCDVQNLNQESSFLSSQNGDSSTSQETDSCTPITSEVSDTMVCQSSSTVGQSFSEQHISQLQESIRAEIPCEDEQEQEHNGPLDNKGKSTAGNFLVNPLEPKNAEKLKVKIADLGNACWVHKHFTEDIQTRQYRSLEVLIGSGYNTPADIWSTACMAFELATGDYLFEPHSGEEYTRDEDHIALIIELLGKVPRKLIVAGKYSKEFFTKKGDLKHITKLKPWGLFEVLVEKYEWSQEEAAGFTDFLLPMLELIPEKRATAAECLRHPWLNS

Structure (SMILES) | IC50 [µM]
COC(=O)C1(C)CCN(c2ncc(C(F)(F)F)cc2NC(=O)c2ccc(C3CCOCC3)o2)CC1 [Compound 032, methyl 4-methyl-1-[3-[(5-tetrahydropyran-4-ylfuran-2-carbonyl)amino]-5-(trifluoromethyl)-2-pyridyl]piperidine-4-carboxylate] | 0.114
O=C(Nc1cc(C(F)(F)F)cnc1N1CCC(O)(C(F)(F)F)CC1)c1ccc(C2CCOCC2)o1 [Compound 069] | 0.0637
O=C(Nc1cc(C(F)(F)F)cnc1N1CCCC(O)CC1)c1ccc(C2CCOCC2)o1 (centres unmarked) [Compound 031] | 0.36
O=C(Nc1cc(C(F)(F)F)cnc1N1CCC(O)CC1)c1ccc(-c2ccnc(O)c2)o1 [Compound 021] | 0.0135
O=C(Nc1cc(C(F)(F)F)cnc1N1CCC2(CC1)CC(O)C2)c1ccc(C2CCOCC2)o1 [Compound 060] | 0.0519
CN1CCC(c2ccc(C(=O)Nc3cc(C(F)(F)F)cnc3N3CCC(O)CC3)o2)CC1 [Compound 066, N-[2-(4-hydroxy-1-piperidyl)-5-(trifluoromethyl)-3-pyridyl]-5-(1-methyl-4-piperidyl) furan-2-carboxamide] | > 30
Cn1cc(-c2ccc(C(=O)Nc3cc(C(F)(F)F)cnc3N3CCC(O)CC3)o2)cn1 [Compound 054] | 0.0185
CC(=O)N1CCN(c2ncc(C(F)(F)F)cc2NC(=O)c2ccc(C3CCOCC3)o2)CC1 [Compound 085] | 2.05
O=C(Nc1cc(C2CC2)cnc1N1CCC(O)CC1)c1ccc(-c2ccnc(F)c2)o1 [Compound 023] | 0.0551
O=C(Nc1cc(C(F)(F)F)cnc1N1CCC(F)(F)CC1)c1ccc(-c2ccncc2)o1 [Compound 070] | 4.64
O=C(Nc1cc(C(F)(F)F)cnc1N1CCc2n[nH]cc2C1)c1ccc(C2CCOCC2)o1 [Compound 078] | 0.0279
C[C@H]1C[C@H](O)CCN1c1ncc(C(F)(F)F)cc1NC(=O)c1ccc(C2CCOCC2)o1 [Compound 076] | 0.0142
O=C(Nc1cc(C(F)(F)F)cnc1-c1ccncc1)c1ccc(C2CCOCC2)o1 [Compound 010] | 8.24
O=C(Nc1cc(C(F)(F)F)cnc1N1CCC(O)CC1)c1ccc(C2CCNCC2)o1 [Compound 061] | 8.2
O=C(Nc1cc(C(F)(F)F)cnc1N1CCC(O)CC1)c1cccc(Cl)n1 [Compound 087] | 0.249
CN1CCC2(CCN(c3ncc(C(F)(F)F)cc3NC(=O)c3ccc(C4CCOCC4)o3)CC2)C1=O [Compound 030] | 0.232

Structure (SMILES) | IC50 [µM]
COc1ccc(C(=O)Nc2cc(C(F)(F)F)cnc2N2CCC(O)CC2)nc1 [Compound 090] | 1.38
CC1(O)CCCN(c2ncc(C(F)(F)F)cc2NC(=O)C2CCC(C3CCOCC3)O2)CC1 (centres unmarked) [Compound 058] | 15.7
O=C(Nc1cc(C(F)(F)F)cnc1N1CCC(O)CC1)c1ccncc1 [Compound 046, N-[2-(4-hydroxy-1-piperidyl)-5-(trifluoromethyl)-3-pyridyl]pyridine-4-carboxamide] | > 30
CC1(O)CCN(c2ncc(Cl)cc2NC(=O)c2ccc(-c3ccncc3)o2)CC1 [Compound 024] | 0.346
O=C(Nc1cc(C(F)(F)F)cnc1N1CCC(O)CC1)c1ccc(-c2cncnc2)o1 [Compound 063] | 13.5
CC1(O)CCCN(c2ncc(C(F)(F)F)cc2NC(=O)c2ccc(C3CCOCC3)o2)CC1 (centres unmarked) [Compound 055] | 0.0451
O=C(Nc1cc(C(F)(F)F)cnc1N1CCC(O)(C(F)(F)F)CC1)c1ccc(-c2ccncc2)o1 [Compound 064] | 0.249
O=C(Nc1cc(C2CC2)cnc1N1CCC(O)CC1)c1ccc(-c2ccncc2)o1 [Compound 034] | 0.0248
O=C(Nc1cc(C(F)(F)F)cnc1N1CCC(O)CC1)c1ccc(-c2ccnnc2)o1 [Compound 050] | 0.435
CN(C)C(=O)C1CCN(c2ncc(C(F)(F)F)cc2NC(=O)c2ccc(C3CCOCC3)o2)CC1 [Compound 040] | 0.193
O=C(Nc1cc(C(F)(F)F)cnc1N1CCCCC1)c1ccc(C2CCOCC2)o1 [Compound 036] | > 30
O=C1CC2(CCN(c3ncc(C(F)(F)F)cc3NC(=O)c3ccc(C4CCOCC4)o3)CC2)C1 [Compound 065, N-(2-(2-oxo-7-azaspiro[3.5]nonan-7-yl)-5-(trifluoromethyl)pyridin-3-yl)-5-(tetrahydro-2H-pyran-4-yl) furan-2-carboxamide] | 0.204
O=C(Nc1cc(C(F)(F)F)cnc1N1CCC2(CCNC2=O)CC1)c1ccc(C2CCOCC2)o1 [Compound 073] | 0.0593
CC(=O)OC1CCN(c2ncc(C3CC3)cc2NC(=O)c2ccc(-c3ccncc3)o2)CC1 [Compound 033, 1-(5-cyclopropyl-3-(5-(pyridin-4-yl)furan-2-carboxamido)pyridin-2-yl) piperidin-4-yl acetate] | 0.202
O=C(Nc1cc(C(F)(F)F)cnc1N1CCC(O)CC1)c1ccc(-c2cc[nH]n2)o1 [Compound 084] | 0.0607
CN(C)C(=O)C1(C)CCN(c2ncc(C(F)(F)F)cc2NC(=O)c2ccc(C3CCOCC3)o2)CC1 [Compound 045] | 0.0845

Now from value to compound:

IC50 [µM] | Structure (SMILES)
> 30 | C[C@@H]1C[C@H](O)CCN1c1ncc(C2CC2)cc1NC(=O)c1ccc(-c2cn[nH]c2)o1 [Compound 127]
> 30 | O=C(Nc1cc(C(F)(F)F)cnc1N1CCC(O)CC1)c1cc(-c2cn[nH]c2)ccn1 [Compound 094, N-[2-(4-hydroxy-1-piperidyl)-5-(trifluoromethyl)-3-pyridyl]-4-(1H-pyrazol-4-yl)pyridine-2-carboxamide]
> 30 | O=C(Nc1cc(C2CC2)cnc1N1CCc2[nH]ncc2C1)c1ccc(-c2cn[nH]c2)o1 [Compound 121]
> 30 | C[C@@H]1C[C@H](O)CCN1c1ncc(C2CC2)cc1NC(=O)c1ccc(-c2ccnc(N)c2)o1 [Compound 128]
> 30 | C[C@@H]1C[C@@H](O)CCN1c1ncc(C(F)(F)F)cc1NC(=O)c1ccc(-c2ccnc(N)c2)o1 [Compound 114]
0.746 | C[C@@H]1C[C@H](O)CCN1c1ncc(C(F)(F)F)cc1NC(=O)c1ccc(Br)o1 [Compound 109]
0.34 | O=C1C=C(c2ccc(C(=O)Nc3cc(C(F)(F)F)cnc3N3CCC(O)CC3)o2)CCO1 [Compound 102]
> 30 | O=C(Nc1cc(C(F)(F)F)cnc1N1CCc2[nH]ncc2C1)c1ccc(-c2cn[nH]c2)o1 [Compound 123]
> 30 | O=C(Nc1cc(C(F)(F)F)cnc1N1CCc2[nH]ncc2C1)c1ccc(Br)o1 [Compound 115]
> 30 | C[C@@H]1C[C@@H](O)CCN1c1ncc(C(F)(F)F)cc1NC(=O)c1ccc(-c2cc(N)nc(N)c2)o1 [Compound 132]
> 30 | C[C@@H]1C[C@@H](O)CCN1c1ncc(C(F)(F)F)cc1NC(=O)c1ccc(-c2cn[nH]c2)o1 [Compound 113]
0.556 | O=C(Nc1cc(C(F)(F)F)cnc1N1CCC(O)CC1)c1ccc(-c2c[nH]cn2)o1 [Compound 104]
0.871 | O=C(O)c1ccc(C(=O)Nc2cc(C(F)(F)F)cnc2N2CCC(O)CC2)o1 [Compound 098]
0.746 | C[C@@H]1C[C@@H](O)CCN1c1ncc(C(F)(F)F)cc1NC(=O)c1ccc(Br)o1 [Compound 107, 5-bromo-N-[2-[(2R,4S)-4-hydroxy-2-methyl-1-piperidyl]-5-(trifluoromethyl)-3-pyridyl]furan-2-carboxamide]
0.0597 | O=C(Nc1cc(C(F)(F)F)cnc1N1CCC(O)CC1)c1cccc(-c2cn[nH]c2)n1 [Compound 100]
